Data: patent publication US20230271956A1, “AMIDE DERIVATIVES” (Merck Patent GmbH, priority 2020, published 2023)
pIC50: −log10 of the molar value.

Legend:
human rec ACSS2 = target: T1, human rec ACSS2 (Homo sapiens, UniProt Q9NR19); assay: Biochemical activity ACSS2 assay (AMP-Glo); conditions: human recombinant ACSS2, AMP-Glo, 180 min at 37° C.
T1 construct: myc (C); purchased Origene
Method: The biochemical activity assay for ACSS2 is based on the detection of released AMP by AMP-Glo ™ Assay kit (Promega, Madison). The assay is run in three steps: the enzymatic reaction in which human rec ACSS2 activates acetate with ATP and Coenzyme A as cosubstrates to acetyI-coA thereby releasing AMP and the detection reaction of AMP by AMP Glo assay in which after the destruction of the residual ATP with AMP Glo reagent 1 produced AMP is converted to ATP that is measured in a luciferase assay system (detection reagent). The ACSS2 activity correlates with the detected luminescence signal.
The assay was performed in Perkin Elmer 384well white Proxiplates in a total volume of 8 µl.
1 nM (fc) C-term myc tagged ACSS2 (human, recombinant, Origene, Rockville, US) and a mixture of 100 µM (fc) ATP, 100 µM (fc) Coenzyme A and 500 µM (fc) sodium acetate were incubated in a total volume of 5 µl (50 mM Hepes, 1 mM Mg-chloride, 150 mM NaCl, 1 mM DTT, 0.01 % (w/v) BSA, 0.3 % DMSO, pH 7.5) in the absence or presence of the test compound (10 dilution concentrations, start conc 30 µM) for 180 min at 37° C. The reaction was stopped and residual ATP destroyed by the addition of 1 µl AMP Glo reagent solution (Promega, Madison, US). After 1 h incubation at room temperature 2 µl of AMP Glo detection reagent was added and the assay was incubated for 0.75 hr at room temperature. The luminescence signal was measured with an Envision multimode reader (Perkin Elmer LAS Germany GmbH) at 700 nm in luminescence mode. The full value used was the inhibitor-free reaction. The pharmacological zero value was generated by addition of ACSS2 inhibitor (Ac-CoA Synthase Inhibitor - CAS 508186-14-9 -Calbiochem) in a final concentration of 5 µM. The inhibitory values (IC50) were determined using the program Assay Analyzer® from GeneData.

ACSS2 = target: T2, ACSS2 (Homo sapiens, UniProt Q9NR19); assay: Cellular assay of 14C acetate incorporation into histones (IC50 ACSS2 cellular histone); type: cell-based; conditions: HCT-15 cells
T2 construct: endogenous fatty acid synthesis activity in the human HCT-15 cancer cell line; endogenous in cells; host or cells: HCT-15
Method: This protocol describes a cellular assay capable to quantify endogenous histone acetylation activity in the human HCT-15 cancer cell line following the incorporation of extracellularly administered radiolabeled ^14C acetate with a scintillation based read out on acid extracted histones.
HCT-15 cells are trypsinized, washed and suspended in DMEM culture medium supplemented with penicillin/streptomycin (100 U/mL), sodium pyruvate (1 mM), and 10% FBS
Compounds serial dilutions are prepared in 96-well V-bottom microplate from 10 mM stock solutions in DMSO. From these dilutions 0.5 µl are transferred to a fresh plate including pure DMSO as negative control. The dilutions are prepared such, that the final concentration in the assay is 1/400 of the concentration in the serial dilution. The final DMSO concentration in the assay is 0.25 %.
The cell suspension is seeded at densities of 2x10^5 cells per 170 µl into individual wells of a 96 well plate each containing 0.5 µl aliquots of compound serial dilutions and are kept for 1h in a cell incubator. To each well 30 µL of a mixture containing 0.5 mCi/mL of ^14C-acetate with full medium are added. Then, the wells are incubated for 3 hrs in the cell incubator.
Further steps of the procedure should be conducted on ice or instrumentations precooled to 4° C. Cells are sedimented in the 96-well V-bottom microplate by centrifugation (Eppendorf 5804 R) at 1200 rpm for 5 min. The supernatant is removed and the cells are washed twice with 200µL of PBS-NaB (5 mM sodium butyrate) buffer by iterative resuspension and centrifugation. Finally, the cells are resuspended in 50 µL of TEB (PBS-NaB + 0.5 % Triton X-100) and left on ice for 10 minutes. After centrifugation at 2300 rpm for 10 minutes at 4° C. the supernatant is removed, the remaining pellet is suspended in 50 µL of 0.2 M HCl and incubated over night at 4° C. After incubation the well plate is shaken for 2 minutes in a MTP plate shaker set to 1200 rpm and then centrifuged at 3700 rpm for 10 mins. The lysate is carefully aspirated (~43 µL) and transferred into a white MTP plate (Greiner bio-one 65509). 90 µL of Ultima Gold XR scintillation cocktail are added and the plates are sealed with a transparent cover tape before mixing vigorously using plate shaker set to 1200 rpm. Radioactivity from ^14C incorporation in the wells is measured as CPM count in a MicroBeta Trilux luminescence counter.

T1 sequence (Q9NR19 whole entry): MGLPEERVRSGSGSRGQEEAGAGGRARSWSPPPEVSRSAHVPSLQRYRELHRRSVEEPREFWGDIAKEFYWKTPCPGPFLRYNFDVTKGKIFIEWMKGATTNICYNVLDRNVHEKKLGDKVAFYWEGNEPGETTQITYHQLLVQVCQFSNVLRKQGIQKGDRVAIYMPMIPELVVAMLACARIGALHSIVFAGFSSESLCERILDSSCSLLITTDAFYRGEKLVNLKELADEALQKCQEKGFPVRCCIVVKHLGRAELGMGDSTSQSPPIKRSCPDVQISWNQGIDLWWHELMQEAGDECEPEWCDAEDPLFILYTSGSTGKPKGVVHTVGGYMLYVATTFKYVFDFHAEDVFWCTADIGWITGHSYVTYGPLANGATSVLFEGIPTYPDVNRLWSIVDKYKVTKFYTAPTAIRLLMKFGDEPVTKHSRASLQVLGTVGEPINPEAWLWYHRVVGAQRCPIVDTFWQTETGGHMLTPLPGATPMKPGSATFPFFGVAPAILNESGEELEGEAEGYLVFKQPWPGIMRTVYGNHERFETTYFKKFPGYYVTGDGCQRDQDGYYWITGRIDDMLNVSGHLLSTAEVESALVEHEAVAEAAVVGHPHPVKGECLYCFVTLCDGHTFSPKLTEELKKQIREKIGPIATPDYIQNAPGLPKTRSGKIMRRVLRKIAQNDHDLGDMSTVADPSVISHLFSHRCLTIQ
T2 sequence (Q9NR19 whole entry): as above

Row | SMILES | pIC50 (human rec ACSS2) | pIC50 (ACSS2)
1 | CCc1c(C(O)(c2ccccc2)c2nccs2)nc2cc(OC)c(C(=O)Nc3ncn(CC)n3)cn12 (racemic) [Compound 32, 3-ethyl-N-(1-ethyl-1H-1,2,4-triazol-3-yl)-2-[hydroxy(phenyl)(1,3-thiazol-2-yl)methyl]-7-methoxyimidazo[1,2-a]pyridine-6-carboxamide] | 7.00 to 8.00 | 
2 | CCc1cc2nc(C(O)(c3ccccc3)c3ccccc3)c(CC)n2cc1C(=O)Nc1ncn(CC)n1 (racemic) [Compound 33, 3,7-diethyl-N-(1-ethyl-1H-1,2,4-triazol-3-yl)-2-(hydroxydiphenylmethyl)imidazo[1,2-a]pyridine-6-carboxamide] | 7.00 to 8.00 | 
3 | CCn1cnc(NC(=O)c2cc3c(nc2OC)nc(C(O)(c2ccccc2)c2ccc4ccccc4n2)n3CC)n1 (racemic) [Compound 35, 1-ethyl-N-(1-ethyl-1H-1,2,4-triazol-3-yl)-2-[hydroxy(phenyl)(quinolin-2-yl)methyl]-5-methoxy-1H-imidazo[4,5-b]pyridine-6-carboxamide] | 8.00 to 9.00 | 
4 | CCn1cnc(NC(=O)c2cc3c(nc2OC)nc(C(O)(c2ccccc2)c2ccsc2)n3CC)n1 (racemic) [Compound 39, 1-ethyl-N-(1-ethyl-1H-1,2,4-triazol-3-yl)-2-[hydroxy(phenyl)(thiophen-3-yl)methyl]-5-methoxy-1H-imidazo[4,5-b]pyridine-6-carboxamide] | 8.00 to 9.00 | 
5 | CCn1cnc(NC(=O)c2cc3c(nc2OC)nc(C(O)(c2ccccc2)c2ccn(C)n2)n3CC)n1 (racemic) [Compound 40, 1-ethyl-N-(1-ethyl-1H-1,2,4-triazol-3-yl)-2-[hydroxy(1-methyl-1H-pyrazol-3-yl)phenylmethyl]-5-methoxy-1 H-imidazo[4,5-b]pyridine-6-carboxamide] | 7.00 to 8.00 | 
6 | CCn1cnc(NC(=O)c2cc3c(nc2OC)nc(C(O)(c2ccccc2)c2ccncn2)n3CC)n1 (racemic) [Compound 42, 1-ethyl-N-(1-ethyl-1H-1,2,4-triazol-3-yl)-2-[hydroxy(phenyl)(pyrimidin-4-yl)methyl]-5-methoxy-1H-imidazo[4,5-b]pyridine-6-carboxamide] | 7.00 to 8.00 | 8.00 to 9.00
7 | CCn1cnc(NC(=O)c2cc3c(nc2OC)nc(C(O)(c2ccccn2)c2cccs2)n3CC)n1 (racemic) [Compound 43, 1-ethyl-N-(1-ethyl-1H-1,2,4-triazol-3-yl)-2-[hydroxy(pyridin-2-yl)(thiophen-2-yl)methyl]-5-methoxy-1H-imidazo[4,5-b]pyridine-6-carboxamide] | 7.00 to 8.00 | 7.00 to 8.00
8 | CCn1cnc(NC(=O)c2cc3c(nc2OC)nc(C(O)(c2ccccc2)c2nccs2)n3CC)n1 (racemic) [Compound 44, 1-ethyl-N-(1-ethyl-1H-1,2,4-triazol-3-yl)-2-[hydroxy(phenyl)(1,3-thiazol-2-yl)methyl]-5-methoxy-1H-imidazo[4,5-b]pyridine-6-carboxamide] | 8.00 to 9.00 | 8.00 to 9.00
9 | CCn1cnc(NC(=O)c2cc3c(nc2OC)nc(C(O)(c2ccccc2)c2cccnn2)n3CC)n1 (racemic) [Compound 45, 1-ethyl-N-(1-ethyl-1H-1,2,4-triazol-3-yl)-2-[hydroxy(phenyl)(pyridazin-3-yl)methyl]-5-methoxy-1H-imidazo[4,5-b]pyridine-6-carboxamide] | 8.00 to 9.00 | 8.00 to 9.00
10 | CCn1cnc(NC(=O)c2cc3c(nc2OC)nc(C(O)(c2ccccc2)c2cnn(C)c2)n3CC)n1 (racemic) [Compound 48, 1-ethyl-N-(1-ethyl-1H-1,2,4-triazol-3-yl)-2-[hydroxy(1-methyl-1H-pyrazol-4-yl)phenylmethyl]-5-methoxy-1H-imidazo[4,5-b]pyridine-6-carboxamide] | 5.00 to 7.00 | 5.00 to 7.00
11 | CCn1cnc(NC(=O)c2cc3c(nc2OC)nc(C(O)(c2ccccc2)c2ncccn2)n3CC)n1 (racemic) [Compound 49, 1-ethyl-N-(1-ethyl-1H-1,2,4-triazol-3-yl)-2-[hydroxy(phenyl)(pyrimidin-2-yl)methyl]-5-methoxy-1H-imidazo[4,5-b]pyridine-6-carboxamide] | 7.00 to 8.00 | 8.00 to 9.00
12 | CCn1cnc(NC(=O)c2cc3c(nc2OC)nc(C(O)(c2ccccc2)c2ccccc2C)n3CC)n1 (racemic) [Compound 56, 1-ethyl-N-(1-ethyl-1H-1,2,4-triazol-3-yl)-2-[hydroxy(2-methylphenyl)phenylmethyl]-5-methoxy-1H-imidazo[4,5-b]pyridine-6-carboxamide] | 8.00 to 9.00 | 
13 | CCn1cnc(NC(=O)c2cc3c(nc2OC)nc(C(O)(c2ccccc2)c2ccccc2OC)n3CC)n1 (racemic) [Compound 57, 1-ethyl-N-(1-ethyl-1H-1,2,4-triazol-3-yl)-2-[hydroxy(2-methoxyphenyl)phenylmethyl]-5-methoxy-1H-imidazo[4,5-b]pyridine-6-carboxamide] | 5.00 to 7.00 | 7.00 to 8.00
14 | CCn1cnc(NC(=O)c2cc3c(nc2OC)nc(C(O)(c2ccccc2)c2ccc(OC(F)F)cc2F)n3CC)n1 (racemic) [Compound 78, 2-{[4-(difluoromethoxy)-2-fluorophenyl](hydroxy)phenylmethyl}-1-ethyl-N-(1-ethyl-1H-1,2,4-triazol-3-yl)-5-methoxy-1H-imidazo[4,5-b]pyridine-6-carboxamide] | 8.00 to 9.00 | 9.00 to 11.00
15 | CCc1c(C(O)(c2ccccc2)c2ccc(C)s2)nc2cc(OC)c(C(=O)Nc3ncn(CC)n3)cn12 (single isomer, unassigned) [Compound 26, 3-Ethyl-2-[hydroxy-(5-methyl-thiophen-2-yl)-phenyl-methyl]-7-methoxy-imidazo[1,2-a]pyridine-6-carboxylic acid (1-ethyl-1H-[1,2,4]triazol-3-yl)-amide] | 5.00 to 7.00 | 
16 | CCc1c(C(O)(c2ccccc2)c2ccc(C)s2)nc2cc(OC)c(C(=O)Nc3ncn(CC)n3)cn12 (single isomer, unassigned) [Compound 27, 3-Ethyl-2-[hydroxy-(5-methyl-thiophen-2-yl)-phenyl-methyl]-7-methoxy-imidazo[1,2-a]pyridine-6-carboxylic acid (1-ethyl-1H-[1,2,4]triazol-3-yl)-amide] | 8.00 to 9.00 | 
17 | CCn1cnc(NC(=O)c2cc3c(nc2OC)nc(C(O)(c2ccccc2)c2ccccc2)n3C)n1 [Compound 36, N-(1-ethyl-1H-1,2,4-triazol-3-yl)-2-(hydroxydiphenylmethyl)-5-methoxy-1-methyl-1H-imidazo[4,5-b]pyridine-6-carboxamide] | 9.00 to 11.00 | 
18 | [2H]c1c([2H])c([2H])c(C(O)(c2c([2H])c([2H])c([2H])c([2H])c2[2H])c2nc3nc(OC)c(C(=O)Nc4ncn(CC)n4)cc3n2CC)c([2H])c1[2H] [Compound 37, 1-ethyl-N-(1-ethyl-1H-1,2,4-triazol-3-yl)-2-{hydroxybis[(2,3,4,5,6-^2H5)phenyl]methyl}-5-methoxy-1 H-imidazo[4,5-b]pyridine-6-carboxamide] | 9.00 to 11.00 | 
19 | CCn1cnc(NC(=O)c2cc3c(nc2OC)nc(C(O)(c2ccsc2)c2ccsc2)n3CC)n1 [Compound 38, 1-ethyl-N-(1-ethyl-1H-1,2,4-triazol-3-yl)-2-[hydroxybis(thiophen-3-yl)methyl]-5-methoxy-1H-imidazo[4,5-b]pyridine-6-carboxamide] | 8.00 to 9.00 | 
